What all share (format): cell-based
For one experiment, the target named is T1, KLW (Homo sapiens, UniProt P42345+P62942, T2098L).
T1 construct: The minimal FRB domain comprises amino acids 2025-2114 of human mTor; expressed in transfected cells; host or cells: COS1 cells
As to the kind of experiment: SeAP transcriptional switch assay, FRB mutant KLW. Here is the method:
(§1) Drug efficacy was determined in a three-plasmid transcriptional switch reporter assay. ˜106 COS1 cells were coelectroporated with 2 μg of the DNA binding construct pBJ5-Gal4-FKBP(3), 2 μg pBJ5-VP16 (or the relevant mutant FRB) and 2 μg of the Gal4-SeAP reporter. Electroporation details are available upon request. Cells were immediately aliquoted to 2 or 3×96 well plates with flat bottoms. After 24 hours incubation media was supplemented with a rapalog in triplicate and in serial two fold dilutions. Following 24 hours further incubation, cells with media were wrapped carefully in plastic wrap and heated to 65° C. for two hours to inactivate endogenous phosphatases. 50 μL of media was transferred to a black 96 well plate (Costar 3915) and supplemented with 1 mM methylumbelliferrylphosphate (Sigma, St. Louis, Mo.) in 1M diethanolamine (pH 10.0 with carbonate). After 16 hours incubation at 37° C. SeAP activity was measured by fluorescence with a Spectamax M2 fluorometer (Molecular Devices, Sunnyvale, Calif.) with transmission set at 355 nm and emmission set at 460 nm. Data was analysed with Softmax Pro (Molecular Devices), Microsoft Excel and Prism 3 (GraphPad Software).

For the next experiment, the target named is T2, FKBP-GSK3β-GFP (Homo sapiens, UniProt P62942).
T2 construct: expressed in transfected cells; host or cells: COS1 cells
T2 sequence (P62942 whole entry): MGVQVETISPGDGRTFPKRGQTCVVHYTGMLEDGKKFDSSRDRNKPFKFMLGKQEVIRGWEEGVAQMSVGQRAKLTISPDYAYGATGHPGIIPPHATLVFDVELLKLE
Description: Sub-cellular localization of FKBP-GSK3β-GFP with FRB(TLW)-NES and FRB(KTF)-NLS in COS1 cells. The note with it: 10 nM, 1 hour. As to the method:
COS1 cells were electroporated with 1 μg pS-FKBP-GSK3β-GFP, 1 μg of the ‘exporter’ pBJ5-FRB(TLW)-Exp-HA containing a nuclear export sequence derived from the rev protein of Human Immunodeficiency Virus and 3 μg of the ‘importer’ pBJ5-FRB(KTF)-Imp with a nuclear localization sequence from SV40 Large T antigen. Cells were plated on autoclaved coverslips and incubated 36 hours followed by 1 hour of rapalog treatment (10 nM). Cells were fixed 10 minutes in 4% paraformaldeyde/PBS at 4° C. and mounted for microscopy with DAPI to visualize the nucleus. Microscopy was perfomed with a Leica confocal microscope and Leica software.

A further experiment addresses T3, KTF (Homo sapiens, UniProt P42345+P62942, W2101F).
T3 construct: The minimal FRB domain comprises amino acids 2025-2114 of human mTor; expressed in transfected cells; host or cells: COS1 cells
Description: SeAP transcriptional switch assay, FRB mutant KTF. As to the method:
as §1

A further experiment deals with T4, FRB (Homo sapiens, UniProt P42345+P62942).
T4 construct: The minimal FRB domain comprises amino acids 2025-2114 of human mTor; expressed in transfected cells; host or cells: COS-1 cells, electroporated with pBJ5-FRBVP, pBJ5-GF3E and pG5IL2SX
T4 sequence (P42345 2025-2114): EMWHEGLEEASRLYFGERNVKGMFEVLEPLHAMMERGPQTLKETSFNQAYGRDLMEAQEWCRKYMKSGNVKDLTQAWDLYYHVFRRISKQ
T4 sequence (P62942 whole entry, the tested form may be a part): as the sequence (P62942 whole entry) above
As to the kind of experiment: SeAP reporter assay, dimerization of FRB-VP16 to FKBP3-GAL4DBD in COS-1 cells. An excerpt: (§2) Transcription activation by recruitment of chimeric transcriptional activation and DNA binding domains is described. COS-1 cells were electroporated with […] each of the following expression plasmids (Ho, S. N., Biggar, S. R., Spencer, D. M., Schreiber, S. L., and Crabtree, G. R. “Dimeric ligands define a role for transcriptional activation domains in reinitiation.” (1996) Nature 382, 822-826): pG5IL2SX (drives transcription of bacterial secreted alkaline phosphatase (SeAP) through GAL4 DNA binding […] elements), pBJ5-GF3E (which expresses the GAL4 DNA binding domain fused to three copies of human FKBP12), and pBJ5-FRBVP. (which expresses a FRB fusion with the Herpes Simplex Virus VP16 Activation domain) A FRB*-VP16 fusion protein which consists of modified FRB protein fused to the VP16 activation domain was also used selectively. Transfected cells were distributed equally to 96 well plates and were incubated at 37° C. for 24 to 36 hours before media was supplemented with drug in a dilution curve in which each point is represented in quadruplicate. Cells were incubated at 37° C. for an additional 24 hours followed by a 2-hour treatment at 65° C. to inactivate endogenous phosphatases. Each well was supplemented with 100μL of 1 mM methylumbelliferylphosphate dissolved in 2 M diethanolamine buffered to pH 10.0 with carbonate and incubated at 37° C. for 16 hours. Fluorescence was measured with a Fluoroscan (ICN) plate reader at 355 nm transmission and 455 nm emission using Deltasoft software.
(§3) Drug efficacy was determined in a three-plasmid transcriptional switch reporter assay. ˜106 COS1 cells were coelectroporated with 2 μg of the DNA binding construct pBJ5-Gal4-FKBP(3), 2 μg pBJ5-VP16 (or the relevant mutant FRB) and 2 μg of the Gal4-SeAP reporter. Electroporation details are available upon request. […] SeAP activity was measured by fluorescence with a Spectamax M2 fluorometer (Molecular Devices, Sunnyvale, Calif.) with transmission set at 355 nm and emmission set at 460 nm. Data was analysed with Softmax Pro (Molecular Devices), Microsoft Excel and Prism 3 (GraphPad Software).

The target of another experiment is T5, FRB* (Homo sapiens, UniProt P42345+P62942, K2095P/T2098L/W2101F).
T5 construct: The minimal FRB domain comprises amino acids 2025-2114 of human mTor; expressed in transfected cells; host or cells: COS-1 cells
T5 sequence (P42345 2025-2114 K2095P/T2098L/W2101F): as the sequence (P42345 2025-2114) above, with K71P, T74L, W77F counted along it
T5 sequence (P62942 whole entry, the tested form may be a part): as the sequence (P62942 whole entry) above
As to the kind of experiment: SeAP reporter assay, dimerization of FRB*-VP16 to FKBP3-GAL4DBD in COS-1 cells.
Excerpt: as §2, §3

Another experiment has as its target T6, mutant FRBs (Homo sapiens, UniProt P42345, K2095T/T2098L).
T6 construct: The minimal FRB domain comprises amino acids 2025-2114 of human mTor; expressed in transfected cells; host or cells: COS1 cells
As to the kind of experiment: SeAP transcriptional switch assay, panel of FRB mutants at 2095, 2098, 2101. The note with it: TLW. Here is the method: All FRB mutants were prepared by the Quikchange mutagenesis method (Stratagene) using protocols provided by the manufacturer. Briefly, PCR reactions containing the parent plasmid pBJ5-FRB-VP16-HA or pBJ5-FRB*-VP16-HA and overlapping oligonucleotides containing the relevant base changes were performed with Pfu polymerase (Stratagene, San Diego, Calif.). PCR reactions were digested with the methylation sensitive restriction endonuclease Dpn1 to eliminate the parent plasmid and the reaction was transformed in XL10-Gold Ultracompetent E. coli (Stratagene).
Electroporation details are available upon request. Cells were immediately aliquoted to 2 or 3×96 well plates with flat bottoms. […] Data was analysed with Softmax Pro (Molecular Devices), Microsoft Excel and Prism 3 (GraphPad Software).

Values joined by “and” are separate entries in the source; they are usually repeats but may differ in a detail not shown here. Equal entries are not always repeated. Some results are limits rather than exact numbers.

T3 sequence (P42345 2025-2114 W2101F): as the sequence (P42345 2025-2114) above, with W77F counted along it
T3 sequence (P62942 whole entry, the tested form may be a part): as the sequence (P62942 whole entry) above
T1 sequence (P42345 2025-2114 T2098L): as the sequence (P42345 2025-2114) above, with T74L counted along it
T1 sequence (P62942 whole entry, the tested form may be a part): as the sequence (P62942 whole entry) above
T6 sequence (P42345 2025-2114 K2095T/T2098L): as the sequence (P42345 2025-2114) above, with K71T, T74L counted along it
T6 sequence (P62942 2-108 partner): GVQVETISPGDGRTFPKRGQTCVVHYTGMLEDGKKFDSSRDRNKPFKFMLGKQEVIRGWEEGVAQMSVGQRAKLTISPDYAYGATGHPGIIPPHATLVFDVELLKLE

As for “C20-(R or S)-methallylrapamycin [C20-MaRap]”, the “improvement of affinity of KLW over wild-type” value at KLW (KLW versus wild-type FRB) is on record as “about 5 fold”. The EC50 was 22 nM on KLW (single mutation Thr2098 to Leu, read-out: affinity, KLW); 9 nM on KTF (single mutation Trp2101 to Phe); 226 nM and > 200 nM at FRB (wild-type FRB(KTW)-VP16, ±95% confidence intervals); 3.1 ± 0.36 nM on FRB* (FRB*(PLF)-VP16, ±95% confidence intervals). Moreover, the “sub-cellular localization of GSK3β” value on FKBP-GSK3β-GFP was “localization of GSK3β to the nucleus”. The “binding to KTF” value on KTF was “binds efficiently”. The Kd – broadly, a measure of binding affinity in units of concentration – at FRB (wild-type FRB) was over 200 nM; at FRB* (FRB*), 3.1 nM. The “binding to the TLW mutant” value at mutant FRBs was “inefficiently”.

The values are drawn from patent US20050214738A1, “Conditional allele system” (priority 2003, published 2005).
